Legend:
[1] = tested on: Peripheral blood mononuclear cells (PBMC); assay: T cell proliferation assay (anti-CD3 activated PBMC, BrdU based cell proliferation ELISA); details: human PBMC, TRAM-34 (5 μM), 50 ng/ml anti-CD3, 48 hours; read-out: IC50(BrdU incorporation)
From the text: T cell proliferation assay (in analogy to Pegoraro et al., Bioorg. Med. Chem. Lett. 2009, 19, 2299)
Peripheral blood mononuclear cells (PBMC) from healthy human donors were isolated by centrifugation over a density gradient in an aqueous solution, comprising a high molecular weight polysaccharide and sodium diatrizionate, and having a density of 1.077±0.001 (Ficoll-Hypaque by Sigma-Aldrich, Germany; according to manufacturer's instructions). Purified PBMC were washed twice with PBS and resuspended in RPMI1640 culture medium (Gibco—Life Technologies) supplemented with 10% heat inactivated fetal calf serum, 1.5 mM L-glutamine, 100 U penicillin/ml, and 100 […] (all from PAA—GE Healthcare). For stimulation, PBMC were seeded at 1×10^5 cells/well, incubated with TRAM-34 (5 μM) and the test compounds for 4 h and activated with 50 ng/ml anti-CD3 (from eBioscience). After 48 hours proliferation was measured using a BrdU based cell proliferation ELISA according to the manual.

Kv1.3 = Kv1.3 (Homo sapiens (Human), UniProt P22001); assay: Patch-clamp assay for inhibitory activity on Kv1.3 (whole cell patch-clamp recording); assay type: cell-based; details: n≥2 per concentration
Experimental: Patch-Clamp Assay for Inhibitory Activity on Kv1.3
For a description of a Kv1.3 patch-clamp assay, see Grissmer et al., Mol. Pharmacol. 1994, 45, 1227; whole cell patch-clamp recording was performed with n≥2 individual experiments at each compound concentration using different cells. Three or more different concentrations were determined per dose response curve.

Kv1.3, sequence (P22001 whole entry): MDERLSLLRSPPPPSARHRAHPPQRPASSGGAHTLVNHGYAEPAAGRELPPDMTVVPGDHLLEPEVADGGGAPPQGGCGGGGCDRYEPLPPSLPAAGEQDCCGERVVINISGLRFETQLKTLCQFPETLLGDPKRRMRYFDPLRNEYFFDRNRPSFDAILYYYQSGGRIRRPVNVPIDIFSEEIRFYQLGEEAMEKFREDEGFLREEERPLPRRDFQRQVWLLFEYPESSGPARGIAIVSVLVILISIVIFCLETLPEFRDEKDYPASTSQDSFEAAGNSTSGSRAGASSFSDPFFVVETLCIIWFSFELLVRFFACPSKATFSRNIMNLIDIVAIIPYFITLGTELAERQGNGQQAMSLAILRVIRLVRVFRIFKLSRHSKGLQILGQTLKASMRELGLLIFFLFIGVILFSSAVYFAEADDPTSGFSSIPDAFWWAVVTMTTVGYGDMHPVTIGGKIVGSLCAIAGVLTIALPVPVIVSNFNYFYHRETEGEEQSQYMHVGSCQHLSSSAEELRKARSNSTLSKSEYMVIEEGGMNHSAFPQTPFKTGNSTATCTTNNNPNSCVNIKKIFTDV

SMILES | IC50 (Kv1.3) [nM] | IC50 [1] [nM]
COc1ccccc1-c1cc(=O)oc2c(C)c3occ(C)c3cc12 [Example 1, 5-(2-methoxyphenyl)-3,9-dimethyl-7H-furo[3,2-g]chromen-7-one] | ≤ 500 | 3100 to 15000
COc1cccc(-c2cc(=O)oc3c(C)c4occ(C)c4cc23)c1 [Example 2, 5-(3-methoxyphenyl)-3,9-dimethyl-7H-furo[3,2-g]chromen-7-one] | 1500 to 3000 | –
Cc1coc2c(C)c3oc(=O)cc(-c4ccccc4Cl)c3cc12 [Example 3, 5-(2-chlorophenyl)-3,9-dimethyl-7H-furo[3,2-g]chromen-7-one] | 1500 to 3000 | –
Cc1coc2c(C)c3oc(=O)cc(-c4cccc(C(F)(F)F)c4)c3cc12 [Example 4, 3,9-dimethyl-5-(3-(trifluoromethyl)phenyl)-7H-furo[3,2-g]chromen-7-one] | 1500 to 3000 | –
Cc1coc2c(C)c3oc(=O)cc(-c4ccccc4F)c3cc12 [Example 8, 5-(2-fluorophenyl)-3,9-dimethyl-7H-furo[3,2-g]chromen-7-one] | ≤ 500 | –
Cc1c(CN2CCOCC2)oc2c(C)c3oc(=O)cc(-c4ccccc4)c3cc12 [Example 14, 3,9-dimethyl-2-(morpholinomethyl)-5-phenyl-7H-furo[3,2-g]chromen-7-one] | 1500 to 3000 | –
Cc1ccccc1-c1cc(=O)oc2cc3occ(C)c3cc12 [Example 17, 3-methyl-5-(o-tolyl)-7H-furo[3,2-g]chromen-7-one] | 501 to 1500 | –
Cc1cccc(-c2cc(=O)oc3cc4occ(C)c4cc23)c1 [Example 18, 3-methyl-5-(m-tolyl)-7H-furo[3,2-g]chromen-7-one] | 501 to 1500 | –
COc1ccccc1-c1cc(=O)oc2cc3occ(C)c3cc12 [Example 19, 5-(2-methoxyphenyl)-3-methyl-7H-furo[3,2-g]chromen-7-one] | 501 to 1500 | –
COc1cccc(-c2cc(=O)oc3cc4occ(C)c4cc23)c1 [Example 20, 5-(3-methoxyphenyl)-3-methyl-7H-furo[3,2-g]chromen-7-one] | 501 to 1500 | –
Cc1coc2cc3oc(=O)cc(-c4ccccc4Cl)c3cc12 [Example 21, 5-(2-chlorophenyl)-3-methyl-7H-furo[3,2-g]chromen-7-one] | 501 to 1500 | –
Cc1coc2cc3oc(=O)cc(-c4cccc(Cl)c4)c3cc12 [Example 22, 5-(3-chlorophenyl)-3-methyl-7H-furo[3,2-g]chromen-7-one] | 501 to 1500 | –
COc1c2occ(C)c2cc2c(-c3ccccc3)cc(=O)oc12 [Example 23, 9-methoxy-3-methyl-5-phenyl-7H-furo[3,2-g]chromen-7-one] | 1500 to 3000 | –
Cc1coc2nc3oc(=O)cc(-c4ccccc4)c3cc12 [Example 24, 3-methyl-5-phenyl-7H-furo[2,3-b]pyrano[3,2-e]pyridin-7-one] | 501 to 1500 | –
CNCc1nc2cc3c(-c4ccccc4)cc(=O)oc3c(C)c2o1 [Example 39, 4-methyl-2-((methylamino)methyl)-8-phenyl-6H-chromeno[6,7-d]oxazol-6-one] | 1500 to 3000 | –
Cc1coc2c(C)c3oc(=O)cc(-c4cccnc4)c3cc12 [Example 44, 3,9-dimethyl-5-(pyridin-3-yl)-7H-furo[3,2-g]chromen-7-one] | 1500 to 3000 | –
Cc1c2ocnc2cc2c(-c3ccccc3)cc(=O)oc12 [Example 47, 4-methyl-8-phenyl-6H-chromeno[6,7-d]oxazol-6-one] | 1500 to 3000 | –
Cc1coc2c(C)c3oc(=O)cc(-c4ccccn4)c3cc12 [Example 57, 3,9-dimethyl-5-(pyridin-2-yl)-7H-furo[3,2-g]chromen-7-one] | 1500 to 3000 | –
COc1ncccc1-c1c(C)c(=O)oc2c(C)c3occ(C)c3cc12 [Example 62, 5-(2-methoxypyridin-3-yl)-3,6,9-trimethyl-7H-furo[3,2-g]chromen-7-one] | 501 to 1500 | –
COc1ccncc1-c1c(C)c(=O)oc2c(C)c3occ(C)c3cc12 [Example 63, 5-(4-methoxypyridin-3-yl)-3,6,9-trimethyl-7H-furo[3,2-g]chromen-7-one] | 1500 to 3000 | –

More lines, main results first:

IC50 (Kv1.3) [nM] | SMILES | IC50 [1] [nM]
≤ 500 | Cc1c(-c2ccccc2F)c2cc3c(C)coc3c(C)c2oc1=O [Example 5, 5-(2-fluorophenyl)-3,6,9-trimethyl-7H-furo[3,2-g]chromen-7-one] | 1300 to 3000
501 to 1500 | COc1cccc(-c2c(C)c(=O)oc3c(C)c4occ(C)c4cc23)c1 [Example 6, 5-(3-methoxyphenyl)-3,6,9-trimethyl-7H-furo[3,2-g]chromen-7-one] | –
≤ 500 | COc1ccccc1-c1c(C)c(=O)oc2c(C)c3occ(C)c3cc12 [Example 7, 5-(2-methoxyphenyl)-3,6,9-trimethyl-7H-furo[3,2-g]chromen-7-one] | 1300 to 3000
1500 to 3000 | Cc1c(N2CCOCC2)oc2c(C)c3oc(=O)cc(-c4ccccc4)c3cc12 [Example 12, 3,9-dimethyl-2-morpholino-5-phenyl-7H-furo[3,2-g]chromen-7-one] | –
1500 to 3000 | Cc1c(C#N)oc2c(C)c3oc(=O)cc(-c4ccccc4)c3cc12 [Example 13, 3,9-dimethyl-7-oxo-5-phenyl-7H-furo[3,2-g]chromene-2-carbonitrile] | –
1500 to 3000 | Cc1c(CN(C)C)oc2c(C)c3oc(=O)cc(-c4ccccc4)c3cc12 [Example 15, 2-((dimethylamino)methyl)-3,9-dimethyl-5-phenyl-7H-furo[3,2-g]chromen-7-one] | –
501 to 1500 | Cc1ccccc1-c1c(Br)c(=O)[nH]c2c(C)c3occ(C)c3cc12 [Example 28, 6-bromo-3,9-dimethyl-5-(o-tolyl)furo[3,2-g]quinolin-7(8H)-one] | –
1500 to 3000 | Cc1ccccc1-c1cc(=O)[nH]c2c(C)c3occ(C)c3cc12 [Example 29, 3,9-dimethyl-5-(o-tolyl)furo[3,2-g]quinolin-7(8H)-one] | –
1500 to 3000 | Cc1coc2c(C)c3c(cc12)c(-c1ccccc1)cc(=O)n3C [Example 32, 3,8,9-trimethyl-5-phenylfuro[3,2-g]quinolin-7(8H)-one] | –
≤ 500 | Cc1coc2c(C)c3c(cc12)c(-c1ccccc1)c(Br)c(=O)n3C [Example 33, 6-bromo-3,8,9-trimethyl-5-phenylfuro[3,2-g]quinolin-7(8H)-one] | –
501 to 1500 | Cc1c(-c2ccccc2)c2cc3c(C)noc3c(C)c2oc1=O [Example 35, 3,6,9-trimethyl-5-phenyl-7H-chromeno[6,7-d]isoxazol-7-one] | –
≤ 500 | Cc1c(-c2ccccc2)c2cc3c(C)noc3c(C)c2[nH]c1=O [Example 36, 3,6,9-trimethyl-5-phenylisoxazolo[4,5-g]quinolin-7(8H)-one] | –
501 to 1500 | Cc1nc2cc3c(-c4ccccc4)cc(=O)oc3c(C)c2o1 [Example 38, 2,4-dimethyl-8-phenyl-6H-chromeno[6,7-d]oxazol-6-one] | –
501 to 1500 | Cc1c(-c2ccccc2)c2cc3c(C4CC4)coc3c(C)c2oc1=O [Example 42, 3-cyclopropyl-6,9-dimethyl-5-phenyl-7H-furo[3,2-g]chromen-7-one] | –
1500 to 3000 | Cc1c(-c2ccccc2)c2cc3c(C)c(CN(C)C)oc3c(C)c2oc1=O [Example 46, 2-((dimethylamino)methyl)-3,6,9-trimethyl-5-phenyl-7H-furo[3,2-g]chromen-7-one] | –
501 to 1500 | Cc1nc2cc3c(-c4ccccc4)c(C)c(=O)oc3c(C)c2o1 [Example 48, 2,4,7-trimethyl-8-phenyl-6H-chromeno [6,7-d]oxazol-6-one] | –
1500 to 3000 | Cc1noc2c(C)c3oc(=O)cc(-c4ccccc4)c3cc12 [Example 50, 3,9-dimethyl-5-phenyl-7H-chromeno[6,7-d]isoxazol-7-one] | –
501 to 1500 | Cc1noc2c(C)c3[nH]c(=O)cc(-c4ccccc4)c3cc12 [Example 51, 3,9-dimethyl-5-phenylisoxazolo[4,5-g]quinolin-7(8H)-one] | –
501 to 1500 | Cc1c(-c2ccccc2)c2cc3c(C)noc3c(C)c2n(C)c1=O [Example 52, 3,6,8,9-tetramethyl-5-phenylisoxazolo[4,5-g]quinolin-7(8H)-one] | –
1500 to 3000 | Cc1c(-c2cccnc2)c2cc3c(C)noc3c(C)c2n(C)c1=O [Example 56, 3,6,8,9-tetramethyl-5-(pyridin-3-yl)isoxazolo[4,5-g]quinolin-7(8H)-one] | –
501 to 1500 | Cc1ccccc1-c1cc(=O)oc2c(C)c3occ(C)c3cc12 [Example 58, 3,9-dimethyl-5-(o-tolyl)-7H-furo[3,2-g]chromen-7-one] | –
501 to 1500 | Cc1ccccc1-c1c(C)c(=O)n(C)c2c(C)c3occ(C)c3cc12 [Example 59, 3,6,8,9-tetramethyl-5-(o-tolyl)furo[3,2-g]quinolin-7(8H)-one] | –
≤ 500 | Cc1c(-c2ccccc2Cl)c2cc3c(C)coc3c(C)c2n(C)c1=O [Example 60, 5-(2-chlorophenyl)-3,6,8,9-tetramethylfuro[3,2-g]quinolin-7(8H)-one] | –
≤ 500 | Cc1c(-c2ccccc2F)c2cc3c(C)coc3c(C)c2n(C)c1=O [Example 61, 5-(2-fluorophenyl)-3,6,8,9-tetramethylfuro[3,2-g]quinolin-7(8H)-one] | –
1500 to 3000 | COc1ncccc1-c1c(C)c(=O)n(C)c2c(C)c3occ(C)c3cc12 [Example 64, 5-(2-methoxypyridin-3-yl)-3,6,8,9-tetramethylfuro[3,2-g]quinolin-7(8H)-one] | –
